According to patent US20250051338A1, “TYK2 DEGRADERS AND USES THEREOF” (Kymera Therapeutics, Inc., priority 2021, published 2025):

Assays:
Format in all cases: cell-based
TYK2 [1] = target: T1, TYK2 (Homo sapiens, UniProt P29597); assay: TYK2 degradation MSD assay in OCI-LY10 cells; design: endogenous in cells; host or cells: EBV-B cells; conditions: 4 to 24 hours incubation, read-out: TYK2 MSD DC50 rating in OCI-LY10
Method in brief: (§1)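 DC50 values reflect dose-dependent decrease of TYK2 protein, read by MSD after cells were exposed to compound (top 1 to 10 μM, 1:3, 9 doses) for 4 to 24 hours at 37° C.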

TYK2 [2] = target: T1, TYK2; assay: TYK2 degradation MSD assay in EBV-B cells; design: endogenous in cells; host or cells: EBV-B cells; conditions: 4 to 24 hours incubation, read-out: TYK2 MSD DC50 rating in EBV-B
Method in brief: as §1

TYK2 [3] = target: T1, TYK2; assay: TYK2 degradation MSD assay in human PBMC cells; design: endogenous in cells; host or cells: human PBMC; conditions: 4 to 24 hours incubation, read-out: TYK2 MSD DC50 rating in human PBMC
Method in brief: as §1

T1 sequence (P29597 whole entry): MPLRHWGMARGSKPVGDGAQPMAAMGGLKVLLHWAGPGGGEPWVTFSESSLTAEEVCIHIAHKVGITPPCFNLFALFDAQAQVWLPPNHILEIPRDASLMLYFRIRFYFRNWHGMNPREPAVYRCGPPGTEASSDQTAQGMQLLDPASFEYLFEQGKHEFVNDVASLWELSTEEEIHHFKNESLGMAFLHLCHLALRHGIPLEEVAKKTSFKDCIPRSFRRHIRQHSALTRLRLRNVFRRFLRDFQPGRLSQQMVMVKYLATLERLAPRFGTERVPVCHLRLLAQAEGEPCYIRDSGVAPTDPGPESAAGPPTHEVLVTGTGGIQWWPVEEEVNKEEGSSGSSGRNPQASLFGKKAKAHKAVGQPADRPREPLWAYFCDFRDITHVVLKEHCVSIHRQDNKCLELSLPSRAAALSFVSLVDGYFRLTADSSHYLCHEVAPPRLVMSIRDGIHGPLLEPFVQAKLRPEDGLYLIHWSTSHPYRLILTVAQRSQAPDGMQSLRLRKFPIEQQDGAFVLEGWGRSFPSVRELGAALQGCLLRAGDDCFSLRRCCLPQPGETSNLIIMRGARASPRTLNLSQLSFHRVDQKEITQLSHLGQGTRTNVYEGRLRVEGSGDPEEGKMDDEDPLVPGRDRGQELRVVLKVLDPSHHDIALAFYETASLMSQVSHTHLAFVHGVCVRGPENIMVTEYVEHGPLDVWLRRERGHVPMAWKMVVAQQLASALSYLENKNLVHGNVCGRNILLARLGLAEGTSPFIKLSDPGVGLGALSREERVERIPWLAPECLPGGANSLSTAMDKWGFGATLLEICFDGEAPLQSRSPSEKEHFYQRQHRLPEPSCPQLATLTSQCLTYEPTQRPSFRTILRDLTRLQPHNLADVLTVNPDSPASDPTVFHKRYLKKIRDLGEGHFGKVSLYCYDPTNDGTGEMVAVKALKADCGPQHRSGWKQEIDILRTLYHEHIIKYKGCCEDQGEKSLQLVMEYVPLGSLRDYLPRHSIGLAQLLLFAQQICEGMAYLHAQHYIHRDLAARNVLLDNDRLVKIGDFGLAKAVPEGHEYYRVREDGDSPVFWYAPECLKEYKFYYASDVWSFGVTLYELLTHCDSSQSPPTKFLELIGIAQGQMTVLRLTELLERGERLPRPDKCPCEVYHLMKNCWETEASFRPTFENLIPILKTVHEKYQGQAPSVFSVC

DC50 (TYK2 [1]) | DC50 (TYK2 [2]) | DC50 (TYK2 [3]) | Structure (SMILES)
1 to 10 nM | > 100 nM | > 100 nM | CNc1cc(Nc2cccc(-c3ccc(CN4CCN(c5ccc(-c6ccc7c(c6)n(C)c(=O)n7C6CCC(=O)NC6=O)cc5)CC4)cn3)c2)nn2c(C(=O)NC3CC3OC)cnc12 (stereo not drawn) [Example K482]
1 to 10 nM | > 100 nM | > 100 nM | CNc1cc(Nc2cccc(-c3ccc(CN4CCN(c5ccc(-c6ccc7c(c6)n(C)c(=O)n7C6CCC(=O)NC6=O)cc5)CC4)cn3)c2)nn2c(C(=O)NC3CCC3)cnc12 (stereo not drawn) [Example K483]
> 100 nM | > 100 nM | > 100 nM | Cn1c(=O)n(C2CCC(=O)NC2=O)c2ccc(-c3ccc(N4CCN(Cc5ccc(-c6cccc(Nc7cc(C8CC8)c8ncc(C(=O)N[C@@H]9C[C@@H]9F)n8n7)c6)nc5)CC4)cc3)cc21 (stereo partly drawn) [Example K484]
< 1 nM | > 100 nM | > 100 nM | CNc1cc(Nc2cccc(CN3CCN(c4ccc(-c5ccc6c(c5)n(C)c(=O)n6C5CCC(=O)NC5=O)cc4)CC3)c2)nn2c(C(=O)N[C@@H]3C[C@@H]3F)cnc12 (stereo partly drawn) [Example K486]
< 1 nM | > 100 nM | > 100 nM | CNc1cc(Nc2cccc(-c3ccc(CN4CCC(N5CC(N6CCN(c7ccc8c(c7)n(C)c(=O)n8C7CCC(=O)NC7=O)CC6)C5)CC4)cn3)c2OC)nn2c(C(=O)N[C@@H]3C[C@@H]3F)cnc12 (stereo partly drawn) [Example K487]
1 to 10 nM | > 100 nM | > 100 nM | CNc1cc(Nc2cccc(-c3ccc(CN4CCN(c5ccc(-c6cccc7c6n(C)c(=O)n7C6CCC(=O)NC6=O)cc5)CC4)cn3)c2OC)nn2c(C(=O)N[C@@H]3C[C@@H]3F)cnc12 (stereo partly drawn) [Example K488]
> 100 nM | > 100 nM | > 100 nM | CNc1cc(Nc2cccc(-c3ccc(CN4CCN(C(=O)c5ccc(Cl)c(N6CCC(=O)NC6=O)c5)CC4)cn3)c2OC)nn2c(C(=O)N[C@@H]3C[C@@H]3F)cnc12 [Example K489]
< 1 nM | > 100 nM | > 100 nM | CNc1cc(Nc2cccc(CN3CCC(CN4CCN(c5ccc6c(c5)n(C)c(=O)n6C5CCC(=O)NC5=O)CC4)CC3)c2)nn2c(C(=O)N[C@@H]3C[C@@H]3F)cnc12 (stereo partly drawn) [Example K490]
10 to 100 nM | > 100 nM | > 100 nM | CNc1cc(N2CCOc3c(-c4ccc(CN5CCN(c6ccc(-c7ccc8c(c7)n(C)c(=O)n8C7CCC(=O)NC7=O)cc6)CC5)cn4)cccc32)nn2c(C(=O)N[C@@H]3C[C@@H]3F)cnc12 (stereo partly drawn) [Example K491]
10 to 100 nM | > 100 nM | > 100 nM | CNc1cc(-c2ccc(-c3ccc(CN4CCN(c5ccc(-c6ccc7c(c6)n(C)c(=O)n7C6CCC(=O)NC6=O)cc5)CC4)cc3)c3nccn23)nn2c(C(=O)N[C@@H]3C[C@@H]3C)cnc12 (stereo partly drawn) [Example K492]
1 to 10 nM | > 100 nM | > 100 nM | CNc1cc(-c2ccc(-c3ccc(CN4CCC(CN5CCN(c6ccc7c(c6)n(C)c(=O)n7C6CCC(=O)NC6=O)CC5)CC4)cn3)cc2)nn2c(C(=O)N[C@@H]3C[C@@H]3F)cnc12 (stereo partly drawn) [Example K493]
10 to 100 nM | > 100 nM | > 100 nM | CNc1cc(N2CCc3c(-c4ccc(CN5CCN(c6ccc(-c7cccc8c7n(C)c(=O)n8C7CCC(=O)NC7=O)cc6)CC5)cn4)cccc32)nn2c(C(=O)N[C@@H]3C[C@@H]3F)cnc12 (stereo partly drawn) [Example K494]
< 1 nM | > 100 nM | > 100 nM | CNc1cc(Nc2cccn(-c3ccc(CN4CCN(c5ccc(-c6ccc7c(c6)n(C)c(=O)n7C6CCC(=O)NC6=O)cc5)CC4)cn3)c2=O)nn2c(C(=O)N[C@@H]3C[C@@H]3F)cnc12 (stereo partly drawn) [Example K495]
1 to 10 nM | > 100 nM | > 100 nM | CNC1=CC(Nc2cccc(-c3ccc(CN4CCN(CC5CCN(C(=O)c6ccc(Cl)c(N7CCC(=O)NC7=O)c6)CC5)CC4)cn3)c2)=NC2C(C(=O)N[C@@H]3C[C@@H]3F)=CN=C12 (stereo partly drawn) [Example K496]
< 1 nM | < 1 nM | > 100 nM | CNc1cc(N2CCc3c(-c4ccc(CN5CC6(CCN(C(=O)c7ccc(Cl)c(N8CCC(=O)NC8=O)c7)CC6)C5)cn4)cccc32)nn2c(C(=O)N[C@@H]3C[C@@H]3F)cnc12 [Example K498]
> 100 nM | > 100 nM | > 100 nM | CNc1cc(Nc2cccc(-c3ccc(CN4CCN(c5ccc(-c6ccc7c(c6)n(C)c(=O)n7C6CCC(=O)NC6=O)cc5)CC4)cn3)c2)nn2c(C(=O)N[C@@H]3C[C@@H]3F)cnc12 (stereo partly drawn) [Example K499]
> 100 nM | > 100 nM | > 100 nM | CNc1cc(Nc2cccc(-c3ccc(CN4CC5(CCN(c6ccc(C7CCC(=O)NC7=O)cc6)CC5)C4)cn3)c2)nn2c(C(=O)N[C@@H]3C[C@@H]3F)cnc12 (stereo partly drawn) [Example K500]

DC50 (TYK2 [1]) | DC50 (TYK2 [2]) | DC50 (TYK2 [3]) | Structure (SMILES)
10 to 100 nM | > 100 nM | > 100 nM | CNc1cc(N2CCCc3c(-c4ccc(CC5CCC(c6ccc(-c7ccc8c(c7)n(C)c(=O)n8C7CCC(=O)NC7=O)cc6)CC5)cn4)cccc32)nn2c(C(=O)N[C@@H]3C[C@@H]3F)cnc12 (stereo partly drawn) [Example K501]
1 to 10 nM | > 100 nM | > 100 nM | Cc1cc(Nc2cccc(-c3ccc(CN4CCN(c5ccc(-c6ccc7c(c6)n(C)c(=O)n7C6CCC(=O)NC6=O)cc5)CC4)cn3)c2)nn2c(C(=O)N[C@@H]3C[C@@H]3F)cnc12 (stereo partly drawn) [Example K502]
> 100 nM | > 100 nM | > 100 nM | CNc1cc(Nc2cccc(N3CCC(CN4CCN(c5cccc6c(C7CCC(=O)NC7=O)cncc56)CC4)CC3)c2)nn2c(C(=O)N[C@@H]3C[C@@H]3F)cnc12 (stereo partly drawn) [Example K503]
> 100 nM | < 1 nM | > 100 nM | CNc1cc(Nc2cccc(-c3ccc(CN4CCN(CCCOc5ccc(C6CCC(=O)NC6=O)cc5)CC4)cn3)c2)nn2c(C(=O)N[C@@H]3C[C@@H]3F)cnc12 (stereo partly drawn) [Example K504]
1 to 10 nM | 10 to 100 nM | > 100 nM | CNc1cc(N2CCc3c(-c4ccc(CN5CCN(c6ccc(-c7ccc8c(c7)n(C)c(=O)n8C7CCC(=O)NC7=O)cc6)CC5)cn4)cccc32)nn2c(C(=O)N[C@@H]3C[C@@H]3F)cnc12 (stereo partly drawn) [Example K505]
1 to 10 nM | 10 to 100 nM | > 100 nM | CNc1cc(Nc2cccc(-c3ccc(CN4CC5(CCN(C(=O)c6ccc(Cl)c(N7CCC(=O)NC7=O)c6)CC5)C4)cn3)c2)nn2c(C(=O)N[C@@H]3C[C@@H]3F)cnc12 [Example K506]
< 1 nM | 1 to 10 nM | > 100 nM | CNc1cc(Nc2cccc(-c3ccc(CN4CCC(CCc5cccc6c5n(C)c(=O)n6C5CCC(=O)NC5=O)CC4)cn3)c2)nn2c(C(=O)N[C@@H]3C[C@@H]3F)cnc12 (stereo partly drawn) [Example K507]
< 1 nM | 1 to 10 nM | > 100 nM | CNc1cc(Nc2cccc(-c3ccc(CN4CCN(c5ccc(-c6ccc7c(c6)n(C)c(=O)n7C6CCC(=O)NC6=O)cc5)CC4)cn3)c2)nc2c(C(=O)N[C@@H]3C[C@@H]3F)cnn12 (stereo partly drawn) [Example K508]
1 to 10 nM | 1 to 10 nM | > 100 nM | Cn1c(=O)n(C2CCC(=O)NC2=O)c2ccc(-c3ccc(N4CCN(Cc5ccc(-c6cccc(Nc7cc(NC8CC8)n8ncc(C(=O)N[C@@H]9C[C@@H]9F)c8n7)c6)nc5)CC4)cc3)cc21 (stereo partly drawn) [Example K509]
< 1 nM | 1 to 10 nM | > 100 nM | CNc1cc(Nc2cccc(-c3ccc(CN4CC5(CCN(c6cccc7c6n(C)c(=O)n7C6CCC(=O)NC6=O)CC5)C4)cn3)c2)nn2c(C(=O)N[C@@H]3C[C@@H]3F)cnc12 (stereo partly drawn) [Example K510]
1 to 10 nM | < 1 nM | > 100 nM | CNC1=CC(Nc2cccc(-c3ccc(CN4CC5(CCN(c6cccc7c(C8CCC(=O)NC8=O)cccc67)CC5)C4)cn3)c2)=NC2C(C(=O)N[C@@H]3C[C@@H]3F)=CN=C12 (stereo partly drawn) [Example K512]
1 to 10 nM | 1 to 10 nM | > 100 nM | CNc1cc(Nc2cccc(-c3ccc(CN4CCN(c5ccc(-c6cccc7c6n(C)c(=O)n7C6CCC(=O)NC6=O)cc5)CC4)cn3)c2)nn2c(C(=O)N[C@@H]3C[C@@H]3F)cnc12 (stereo partly drawn) [Example K513]
< 1 nM | > 100 nM | > 100 nM | CNc1cc(Nc2cccn(-c3ccc(CN4CCN(CC5CCN(c6ccc(-c7ccc8c(c7)n(C)c(=O)n8C7CCC(=O)NC7=O)cc6)CC5)CC4)cn3)c2=O)nn2c(C(=O)N[C@@H]3C[C@@H]3F)cnc12 (stereo partly drawn) [Example K514]
1 to 10 nM | 1 to 10 nM | > 100 nM | Cn1c(=O)n(C2CCC(=O)NC2=O)c2ccc(-c3ccc(N4CC5(CN(Cc6ccc(-c7cccc(Nc8ccc9ncc(C(=O)NC%10CC%10)n9n8)c7)nc6)C5)C4)cc3)cc21 (stereo not drawn) [Example K515]
> 100 nM | 1 to 10 nM | > 100 nM | CNC1=CC(Nc2cccc(-c3ccc(CN4CCN(c5ccc(-c6cccc7c(N8CCC(=O)NC8=O)cncc67)cc5)CC4)cn3)c2)=NN2C1=NCC2C(=O)N[C@@H]1C[C@@H]1F (stereo partly drawn) [Example K516]
< 1 nM | > 100 nM | > 100 nM | CNc1cc(Nc2cccc(-c3ccc(CN4CCC(N5CC(N6CCN(c7cccc8c7n(C)c(=O)n8C7CCC(=O)NC7=O)CC6)C5)CC4)cn3)c2)nn2c(C(=O)N[C@@H]3C[C@@H]3F)cnc12 (stereo partly drawn) [Example K517]
< 1 nM | > 100 nM | > 100 nM | CNc1cc(Nc2cccc(N3CCC(CN4CCN(c5ccc(-c6ccc7c(c6)n(C)c(=O)n7C6CCC(=O)NC6=O)cc5)CC4)CC3)c2)nn2c(C(=O)N[C@@H]3C[C@@H]3F)cnc12 (stereo partly drawn) [Example K518]
